Source: publication PMC4992173, “Divergent synthesis and identification of the cellular targets of deoxyelephantopins” (Nature Communications, 2016)

What was measured:
[1] = biological target: T1, Thioredoxin domain-containing protein 12 (TXNDC12) (Homo sapiens, UniProt O95881); assay: SILAC competitive profiling with probe 24c in MCF7 lysates: TXNDC12; type: binding; details: 1 h, then 10 µM 24c
T1 construct: endogenous in cells; host or cells: MCF7
Excerpt: (§1) In our efforts to determine the direct molecular targets of deoxyelephantopin we first performed a gel-based competitive in situ proteomic profiling assay[41] […] While the greater conformational flexibility of probe 24c could potentially lead to more promiscuous target engagement relatively to deoxyelephantopin, it was favoured based on the fact that an alkyne moiety appended to the rigid scaffold of deoxyelephantopin may hinder some of its interactions. MCF7 cells were pretreated with various concentrations of deoxyelephantopin for 4 h, harvested, lysed and the lysates were treated with the fluorogenic probe 24c-Cy3 (10 μM; Supplementary Fig. 10). […] Furthermore, cells were pretreated with 20 μM concentration of deoxyelephantopin or 24c and the proteomic profiles were compared (Fig. 6b, Supplementary Fig. 11). Multiple bands were detected that were equally competed by both DEP and 24c, thus again confirming that 24c can be used as an acceptable clickable analogue of deoxyelephantopin in pulldown assays. Having established the optimal labelling conditions by SDS–PAGE, we next carried out a mass spectrometry-based competitive profiling assay[42] coupled with the method of stable isotope labelling of amino acids in culture (SILAC)[43]. […]
(§2) visualization were performed as described above. Images were quantified with ImageJ and kinetics values were calculated using GraphPad Prism (V6.03). […]

[2] = biological target: T2, Glyoxylate reductase/hydroxypyruvate reductase (GRHPR) (Homo sapiens, UniProt Q9UBQ7); assay: SILAC competitive profiling with probe 24c in MCF7 lysates: GRHPR; type: binding; details: protein GRHPR, 1 h, then 10 µM 24c
T2 construct: endogenous in cells; host or cells: MCF7
Excerpt: as §1, §2

T1 sequence (O95881 27-172): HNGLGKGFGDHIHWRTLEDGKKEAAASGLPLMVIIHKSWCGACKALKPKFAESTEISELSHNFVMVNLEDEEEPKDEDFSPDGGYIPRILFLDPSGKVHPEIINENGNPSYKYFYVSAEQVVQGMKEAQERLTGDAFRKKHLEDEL
T2 sequence (Q9UBQ7 whole entry): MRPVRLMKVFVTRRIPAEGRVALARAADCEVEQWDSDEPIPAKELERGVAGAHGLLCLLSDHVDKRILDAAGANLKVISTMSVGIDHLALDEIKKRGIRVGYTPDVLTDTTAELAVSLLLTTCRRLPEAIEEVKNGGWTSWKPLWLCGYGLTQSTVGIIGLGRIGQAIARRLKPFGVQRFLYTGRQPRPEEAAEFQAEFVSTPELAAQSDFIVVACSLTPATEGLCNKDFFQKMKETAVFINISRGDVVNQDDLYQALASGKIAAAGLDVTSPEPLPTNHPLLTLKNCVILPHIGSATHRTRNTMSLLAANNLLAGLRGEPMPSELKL

## C=C(C)C(=O)O[C@H]1CC2=C[C@@H](C/C(C)=C/[C@H]3OC(=O)C(=C)[C@H]13)OC2=O [deoxyelephantopin]
[1]
  SILAC ratio 20 µM Deoxyelephantopin/DMSO with 24c: 0.12
[2]
  SILAC ratio 20 µM Deoxyelephantopin/DMSO with 24c: 0.23
